Experimental data: patent US20120202885A1, “METHODS, ASSAYS AND COMPOSITIONS FOR TREATING RETINOL-RELATED DISEASES” (ReVision Therapeutics, Inc., priority 2004, published 2012)
Values belong to the compound of their own block, whether it stands above or below them.

Assays:
[1] = target: TTR binding to RBP (Homo sapiens, UniProt P02753); experiment: Size exclusion study of transthyretin (TTR) binding to RBP; conditions: 10 μM Apo-RBP; for binding of ligand-RBP to TTR: gel filtration, 360/330 nm absorbance
Description: Apo-RBP at 10 μM was incubated with […] in PBS at room temperature for 1 hour. 10 μM of TTR was then added to the solution, and the mixture was incubated for another hour at room temperature. […] of the sample mixtures with and without TTR addition were analyzed by BioRad Bio-Sil SEC 125 Gel Filtration Column (300×7.8 mm). In control experiments, atROL-RBP and atROL-RBP-TTR mixture were analyzed in the same manner.

[2] = tested on: ABCA4−/− mice; experiment: Drug holiday after 28 days of HPR: A2E and precursors in eyecup extracts (HPLC); type: in vivo; conditions: 28-day drug holiday
Description: HPR (10 mg/kg in DMSO) was administered to ABCA4−/− mice daily for a period of 28 days. Control ABCA4−/− mice received only DMSO for the same period. […] Importantly, the observed reductions in lipofuscin autofluorescence persist long after cessation of HPR therapy. HPR (10 mg/kg), or DMSO, administration was discontinued following 28 days of treatment and re-evaluated A2E and precursor levels after 2 weeks and after 4 weeks.
We examined eyecup extracts by HPLC and employed detection by absorbance and fluorimetry. Identity of the indicated peaks was confirmed by on-line spectral analysis and by co-elution with authentic standards. […] Further, the A2E and precursor (A2PE-H2 and A2PE) levels after a […] or 28-day drug holiday remained at or near the levels immediately following 28 days of treatment (i.e., ca. 50% reduction relative to control), although after the 28-day drug holiday, the amount of A2E and precursor (A2PE-H2 and A2PE) had increased by a few percentage points relative to the 12-day drug holiday levels. […] It is clear that peak fluorescence tracks with the abundance of A2E, A2PE and A2PE-H2.

[3] = target: Retinol Binding Protein (RBP) (Homo sapiens, UniProt P02753); experiment: Fluorescence quenching study of MPR binding to retinol binding protein
Description: Apo-RBP at 0.5 μM was incubated with 0, 0.25, 0.5, 1 and 2 μM of MPR in PBS at room temperature for 1 hour, respectively. As controls, the same concentration of Apo-RBP was also incubated with 1 μM of HPR or 1 μM of atROL. All mixtures contained 0.2% Ethanol (v/v). The emission spectra were measured between 290 nm to 550 nm with excitation wavelength at 280 nm and 3 nm bandpass.

[4] = target: retinol-RBP-TTR complex (Homo sapiens, UniProt P02753); experiment: High-throughput FRET assay for RBP/TTR interaction; type: binding; conditions: conditions as for HPR, FIG. 6
Source text: Reduction of serum retinol and RBP are correlated with concomitant reductions in toxic lipofuscin fluorophores. Because compounds that affect RBP-TTR interaction will directly affect fluorophore levels in the eye, a high-throughput screen for small molecules which prevent interaction of RBP with TTR was developed. This screen employs probe-labeled forms of RBP and TTR which participate in a unique fluorescence resonance energy transfer (FRET) event when complexed. Compounds which interfere with RBP-TTR interaction prevent FRET. Sample spectra taken during the course of this type of assay are shown, in FIG. 4. […] The sample is incubated at 37° C. for 30 min and then illuminated with 330 nm light. The emission spectra are shown in the range of 400-600 nm. HPR binds to RBP and prevents interaction with TTR, and here this property of HPR is utilized here to validate the ability of this screen to detect inhibition of RBP-TTR interaction. […] Additionally, the design of this assay permits discrimination between compounds which interact with RBP versus those which interact with TTR. Thus, by using two distinct excitation energies (280 nm and 330 nm, for protein and retinol, respectively) and implementing simultaneous monitoring of the retinol and TTR-probe fluorescence, the “target” of a presumptive small molecule can be easily determined.
Accordingly, HPR was employed at varied concentrations (from 0-4 μM), using the conditions specified in Example 7, to evaluate the high throughput assay.
The mechanism of action underlying this effect can be explained by the disruption of RBP-TTR interactions. In order to explore this possibility and to further validate the RBP-TTR screen, the effects of all-trans retinoic and 13-cis retinoic acid, using the conditions the conditions specified for analysis of HPR, were examined.

[5] = several investigators; Berni et al. 1993; cited from earlier work

- binding of RBP to ligand (360 nm absorbance in RBP elution peak) [1]: RBP binds to MPR
- effect on binding of TTR to RBP ([1]; 10 μM TTR): inhibits the binding of TTR to RBP
- binding of ligand-RBP to TTR ([1]; 10 μM TTR): did not bind to TTR
- detection of HPR or HPR metabolites in the eyes [2]: unable to detect
- quenching of RBP fluorescence ([3]; 0.5 μM Apo-RBP, 0-2 μM MPR, room temperature 1 hour, excitation 280 nm): concentration-dependent quenching
- degree of quenching compared with other ligands ([3]; controls at 1 μM): smaller than those by atROL and HPR
- concentration at which quenching saturated ([3]; for 0.5 μM of RBP): 1 µM
SMILES: COc1ccc(NC(=O)\C=C(C)/C=C/C=C(C)\C=C\C2=C(C)CCCC2(C)C)cc1 (stereo in doubt) [MPR, N-(4-methoxyphenyl)retinamide]

- inhibition of RBP-TTR interaction [4]: inhibitors of RBP-TTR interaction
SMILES: CC1=C(/C=C/C(C)=C/C=C/C(C)=C\C(=O)O)C(C)(C)CCC1 [13-cis retinoic acid, 13-cis-retinoic acid]

- inhibition of RBP-TTR interaction [4]: inhibitors of RBP-TTR interaction
SMILES: CC1=C(/C=C/C(C)=C/C=C/C(C)=C/C(=O)O)C(C)(C)CCC1 [all-trans retinoic, all-trans-retinoic acid]
- reduction in circulating RBP and retinol [5]: observed in vivo

- binding of ligand-RBP to TTR ([1]; 10 μM TTR): binds to TTR
- binding to RBP ([3]; 1 μM ligand, 0.5 μM Apo-RBP): bind to RBP
SMILES: CC1=C(/C=C/C(C)=C/C=C/C(C)=C/CO)C(C)(C)CCC1 [atROL, all-trans retinol]
